Reference: PMC7432838, “A Curcumin Analog Exhibits Multiple Biologic Effects on the Pathogenesis of Alzheimer’s Disease and Improves Behavior, Inflammation, and β-Amyloid Accumulation in a Mouse Model” (International Journal of Molecular Sciences, 2020)
Several values for one entry are separate records, joined by “and”; a condition that tells them apart may be missing. Identical values can stand only once.

Experiments:
[1] = Water solubility (preformulation, preliminary studies); format: physicochemical; details: water, unformulated
Description: The active pharmaceutical ingredients of TML-6 were synthesized and physico-chemical properties were characterized by SinoPharm Pharmaceutical Company (SPT), Tainan, Taiwan. Preformulation studies on the solubility of TML-6 were conducted by Value Pharmaceutical Services (VPS) Company, Jiansu, China. All the data in this study were conducted using unformulated TML-6. Formulation to optimize the solubility and permeability of TML-6 is under development for toxicological studies.

[2] = Brain penetration study in AD transgenic mice after oral dosing; format: in vivo, mouse; details: oral dose of 150 mg/kg
[3] = test system: Nrf2 promoter in Huh-7 cells; assay: Nrf2 promoter Dual-Luciferase reporter assay; format: cell-based, human
Description: To examine the activities of the anti-oxidative gene NrF2, Huh-7 cells were seeded in 24-well culture plates and then co-transfected with serial dilution of pG5-Nrf2-Luc (firefly luciferase) with the pRL-TK Renilla luciferase reporter. Following overnight incubation, the transfected cells were treated with traditional curcumin and TML-6 compounds for additional 24 h. The luciferase reporter assay was performed using the Dual-Luciferase Reporter assay system (Promega, Madison, WI, USA). The cell lysates were assayed for both firefly and Renilla luciferase activities. The relative luciferase units (RLU) were measured using a luminometer (GLOMAX Multi, Promega). Firefly luciferase activity was normalized for transfection efficiency using the Renilla luciferase activity in each lysate as the control. The RLUs are expressed as means plus standard deviation of three independent experiments.

[4] = Pharmacokinetic study after oral administration in SD rats; format: in vivo, rat; details: male, Sprague-Dawley, rat, in vivo, po, 150 mg/kg
Description: In order to evaluate the bioavailability of curcumin and its analog TML-6, pharmacokinetic studies were commissioned and conducted by the Development Center for Biotechnology (DCB, Taipei, Taiwan). The kinetics of curcumin and TML-6 in blood were collected at 0.25, 0.5, 1, 2, 4, 6, 8 and 10 h after oral administration of curcumin and TML-6 at the dose of 150 mg/kg in male Sprague–Dawley Rats.

[5] = test system: Aβ42 production in N2a/APPswe stable cells; assay: Aβ42 ELISA of culture medium; format: cell-based, mouse; details: 3.14 µg/mL, 24 h, culture medium
Description: (§1) Extracellular levels of soluble Aβ40 and Aβ42 were determined by LEGEND MAX™ β-Amyloid x-40 and X-42 ELISA Kit (Biolegend, San Diego, CA, USA). Overexpression of the APP Swedish mutation (APPswe) in the N2a neuronblastoma cell line was called the N2a/APPswe cell line. N2a/APPswe stable cells were seeded at 8 × 10^5 cells in 6 cm dishes. After overnight incubation, the cells were treated with curcumin and TML-6 for 24 h. […] The culture supernatant was collected and centrifuged at 1500× g at 4 °C for 5 min to remove cells. The culture supernatants from various treatments were conducted to examine the Aβ levels according to the manufacturer’s instructions. The samples for the detection of soluble Aβ levels were diluted in the supernatant at a 1:10 dilution for this experiment. Levels of soluble Aβ were detected by measuring the OD at 620 nm (Molecular Devices, San Jose, CA, USA). The calculation of Aβ levels was based on the standard curves of Aβ40 and Aβ42, respectively.

[6] = Brain penetration study in normal mice after oral dosing; format: in vivo; details: oral dose of 150 mg/kg, normal mouse brain
[7] = test system: phospho-NF-κB in Huh-7 cells; assay: Western blotting of phosphorylated NF-κB; format: cell-based, human; details: 1.96 µg/mL, 24 h, vs medium control
Description: (§2) After cells were seeded and treated with curcumin and TML-6 for 24 h, cells were washed with ice-cold PBS (Phosphate Buffered Saline) and lysed with 100 μL of RIPA cell lysis buffer (Pierce Biotechnology, Rockford, IL, USA) supplemented with protease and phosphatase inhibitors (Roche Diagnostics, Mannheim, Germany). Cell lysates were further cleaned by centrifugation at 14,000 rpm at 4 °C for 15 min. Protein concentration was determined using a Bradford assay (Bio-Rad, Hercules, CA, USA). For Western blot analysis, 20 μg of each sample was prepared for SDS-PAGE (SDS Poly-acrylamide-gel-electrophoresis) and denatured at 95 ℃ for 10 min. The samples prepared from total lysates were loaded and separated by SDS-PAGE (8% or 10%), and then transferred to PVDF membranes (pore size 0.45 μm; PerkinElmer, Waltham, MA, USA) by semi-dry transfer cell (Bio-Rad). After blocking with 5% skim milk in PBS-T (0.1% Tween-20), the membranes were hybridized with primary antibodies at 1/1000 dilution at 4 °C overnight. On the next day, membranes were washed with PBS-T followed by incubation with HRP-conjugated anti-mouse or anti-rabbit secondary antibody (DAKO, Santa Clara, CA, USA) at 1/5000 dilution at room temperature for 1 h as appropriate. […]

[8] = test system: Aβ40 production in N2a/APPswe stable cells; assay: Aβ40 ELISA of culture medium; format: cell-based, mouse; details: 3.14 µg/mL, 24 h, culture medium
Description: as §1

[9] = test system: Iba-1 (microglial activation marker) in 3xTg AD mouse hippocampus; assay: Immunofluorescence staining of Iba-1 in brain of 3xTg AD mice; format: in vivo; details: 150 mg/kg/day in diet for four months
Description: (§3) The triplex transgenic mouse model (3xTg-AD, APP Swedish, MAPT P301L, and PSEN1 M146V) was adopted as the AD model and bred at the laboratory animal center of National Cheng Kung University (NCKU), Tainan, Taiwan. The mice were housed in a room maintained on a 12 h light–dark cycle and fed ad libitum. Six-month old 3xTg-AD mice were used for animal experiments. Experimental procedures for handling the mice were in accordance with the guidelines of the Institutional Animal Care and Use Committee (IACUC) of NCKU. These mice develop plaques and tangles pathology. Aβ deposition is progressive, and deposition appears as early as nine months for triplex-Tg mice. […] The quantity of the diet consumed by the mice was determined daily. The concentration of curcumin and TML-6 in the diet was determined to be around 1.20 mg/g of diet after assaying by HPLC by the Development Center for the Biotechnology (DCB), Taipei, Taiwan.
(§4) Mice were anesthetized using pentobarbital (60 mg/kg, intravenous) and then transcardial perfusion was performed with 0.01 M PBS (pH 7.4). […] Images were captured by the TissureFAXS microscopy system and positive signals were quantified by TissueQuest software module (TissueGnostic, Vienne, Austria).

3xTg AD transgenic mice = assay: Morris water maze test in 3xTg AD transgenic mice; format: in vivo, mouse; details: 150 mg/kg/day in diet for four months; six-month-old 3xTg AD mice; vs vehicle control
Description: The triplex transgenic mouse model (3xTg-AD, APP Swedish, MAPT P301L, and PSEN1 M146V) was adopted as the AD model and bred at the laboratory animal center of National Cheng Kung University (NCKU), Tainan, Taiwan. The mice were housed in a room maintained on a 12 h light–dark cycle and fed ad libitum. Six-month old 3xTg-AD mice were used for animal experiments. Experimental procedures for handling the mice were in accordance with the guidelines of the Institutional Animal Care and Use Committee (IACUC) of NCKU. These mice develop plaques and tangles pathology. Aβ deposition is progressive, and deposition appears as early as nine months for triplex-Tg mice. The AD transgenic mice were fed with the control diet (Laboratory Rodent Diet 5001, LabDiet, St. Louis, MO, USA), the control diet plus traditional curcumin (150 mg/kg), or the control diet plus TML-6 (150 mg/kg) for four months. Diets were stored at 4 °C and were added to mouse cage twice a week. The quantity of the diet consumed by the mice was determined daily. The concentration of curcumin and TML-6 in the diet was determined to be around 1.20 mg/g of diet after assaying by HPLC by the Development Center for the Biotechnology (DCB), Taipei, Taiwan.
For assessing spatial learning and memory, the Morris water maze was used as we described before. […] The time taken to reach the platform was recorded as escape latency.

rat = assay: Preliminary toxicological experiments in the rat model; format: in vivo; details: preliminary data
[10] = test system: phospho-mTOR in Huh-7 cells; assay: Western blotting of phospho-mTOR; format: cell-based, human
Description: After cells were seeded and treated with curcumin and TML-6 for 24 h, cells were washed with ice-cold PBS (Phosphate Buffered Saline) and lysed with 100 μL of RIPA cell lysis buffer (Pierce Biotechnology, Rockford, IL, USA) supplemented with protease and phosphatase inhibitors (Roche Diagnostics, Mannheim, Germany). Cell lysates were further cleaned by centrifugation at 14,000 rpm at 4 °C for 15 min. Protein concentration was determined using a Bradford assay (Bio-Rad, Hercules, CA, USA). For Western blot analysis, 20 μg of each sample was prepared for SDS-PAGE (SDS Poly-acrylamide-gel-electrophoresis) and denatured at 95 ℃ for 10 min. The samples prepared from total lysates were loaded and separated by SDS-PAGE (8% or 10%), and then transferred to PVDF membranes (pore size 0.45 μm; PerkinElmer, Waltham, MA, USA) by semi-dry transfer cell (Bio-Rad). After blocking with 5% skim milk in PBS-T (0.1% Tween-20), the membranes were hybridized with primary antibodies at 1/1000 dilution at 4 °C overnight. On the next day, membranes were washed with PBS-T followed by incubation with HRP-conjugated anti-mouse or anti-rabbit secondary antibody (DAKO, Santa Clara, CA, USA) at 1/5000 dilution at room temperature for 1 h as appropriate. Finally, the images were captured by Amersham Imager 600 (GE Healthcare Life Sciences, Marlborough, MA, USA) after being developed using the chemiluminescent HRP substrate (Millipore, Bedford, MA, USA). The primary antibodies used in this study were anti-APP, anti-NF-κB (Cell Signaling Technology, Danvers, MA, USA), anti-Apo E, anti-p-mTOR (Abcam, Cambridge, MA, USA).

[11] = test system: APP (amyloid precursor protein) in Huh-7 cells; assay: Western blotting of APP protein expression; format: cell-based, human; details: 1.96 µg/mL, 24 h, vs medium control
Description: as §2

Huh-7 cells = assay: Cytotoxicity assay by Cell Counting Kit-8 (CCK-8); format: cell-based, human; details: Huh-7, 24 h, concentrations below 5 μM (2.61 µg/mL)
Description: (§5) The cytotoxicity assay was performed using the Cell Counting Kit-8 (CCK-8, Sigma). We dissolved 0.0524 g of TML-6 (molecular weight is 523.62 g/mol) in 10 mL DMSO to obtain TML-6 stock at 10 mM for cell line study. […] Briefly, Huh-7 cells were seeded overnight in 96-well plates at 5000 cells/well and then subjected to traditional curcumin or TML-6 treatment for 24 h. At each time point, a CCK-8 solution (0.25 mg/mL) was added to the medium in each well for an additional 4 h incubation, and absorbance was measured at 570 nm using an ELISA reader.

[12] = Cytotoxicity assay by Cell Counting Kit-8 (CCK-8); format: cell-based, human; details: human, Huh-7 cells; Huh-7, 24 h
Description: as §5

Apo E in Huh-7 cells = assay: Western blotting of ApoE protein expression; format: cell-based, human; details: 2.62 µg/mL, 24 h, vs medium and curcumin control
Description: as §2

[13] = test system: Aβ in 3xTg AD mouse brain; assay: Immunofluorescence staining of Aβ in brain of 3xTg AD mice; format: in vivo; details: 150 mg/kg/day in diet for four months
Description: as §3, §4

N2a/APPswe stable cells = assay: Cell viability/morphology by micrographs during Aβ ELISA treatment; format: cell-based, mouse; details: 24 h
Description: as §1

CCN(CC)C(=O)CC(C)(C(=O)/C=C/c1ccc(OC)c(OC)c1)C(=O)/C=C/c1ccc(OC)c(OC)c1 [TML-6]
solubility [1]: < 100 µg/mL | Kp ([2]; brain relative to plasma, AD transgenic mouse, read-out: brain level as % of the plasma pK levels): 0.1 | level detected in brain ([2]; AD transgenic mouse brain, preliminary): 3 ng/mL | concentration of highest Nrf2 transcriptional activation ([3]; Huh-7, 24 h, luciferase reporter): 1.32 µg/mL | concentration beyond which cytotoxicity was found in Nrf2 promoter-transfected cells ([3]; Huh-7 transiently transfected with Nrf2 promoter): > 5240 ng/mL | Nrf2 promoter activity, fold stronger than traditional curcumin at 10 µg/mL ([3]; TML-6 at 1.32 µg/mL vs curcumin 10 µg/mL, Huh-7, 24 h): 12.1 fold | Nrf2 promoter activity, fold stronger than traditional curcumin at 20 µg/mL ([3]; TML-6 at 1.32 µg/mL vs curcumin 20 µg/mL, Huh-7, 24 h): 6.6 fold | Cmax [4]: 35.9 ± 15.6 ng/mL | MRT [4]: 3.91 ± 0.62 h | Tmax [4]: 3.67 ± 2.08 h | half-life [4]: 1.27 ± 0.51 h | AUC(0-t) ([4]; AUC(0-8)): 181 ± 78.7 ng·h/mL | AUC(0-t) ([4]; AUC(0-last)): 177 ± 76.8 ng·h/mL | Aβ42 level, reduced to % as compared with control group [5]: ~80% | detection in brain [6]: could not be detected | decrease of phosphorylated NF-κB level [7]: about 50% | Aβ40 level, reduced to % as compared with control group [8]: approximately 86% | suppression of Iba-1 expression in hippocampus vs vehicle control [9]: 50% | learning behavior in Morris water maze (in words) (3xTg AD transgenic mice): significantly improved hippocampus-dependent learning behavior | toxicity in the rat model (in words) (rat): no obvious toxicity | phospho-mTOR suppression (Western blot, in words) ([10]; Huh-7, 24 h): suppressed in all the concentrations | potency of phospho-mTOR reduction relative to curcumin ([10]; TML-6 5.24 µg/mL gives same level as curcumin 20 µg/mL): about 4 fold | average reduction of phospho-mTOR ([10]; dose below IC50 (0.65~3.93 µg/mL), 24 h): about 30% | reduction of APP protein expression level [11]: 60% | cytotoxicity (CCK-8) (Huh-7 cells): no cytotoxicity | IC50 at 24 h [12]: 4.19 µg/mL and 8 µM | induction of ApoE protein expression level (Apo E in Huh-7 cells): approximately 44% | reduction of Aβ expression in brain vs vehicle control [13]: 51% | highest dose, at which cytotoxicity was seen (micrographs) (N2a/APPswe stable cells): 4.19 µg/mL
